Assay results from patent US20230365627A1, “MACROCYCLIC PEPTIDE BORONATE IMMUNOMODULATORS” (Bristol-Myers Squibb Company, priority 2020, published 2023).
*1 amine or outer side, *2 acyl side, *3 side chain or, on linkers, in order; H or OH if unused. Where a SMILES comes first, the peptide text is derived from it. Bridges are numbered along the chain shown (N, C = ends). [ ]: non-standard residue; d: D form. Trp(1-CH2CO) = O=C([C@H](Cc1cn(CC(=O)[*:3])c2ccccc12)N[*:1])[*:2]; X25 = O=C([C@H](CNCc1cc(F)c(B(O)O[*:3])c(F)c1)N[*:1])[*:2]; X29 = COc1ccc(B(O)O[*:3])c(CNC[C@H](N[*:1])C(=O)[*:2])c1; X24 = O=C([C@H](CNCc1ccc(B(O)O[*:3])c(F)c1)N[*:1])[*:2]; X4 = O=C([C@H](CNCc1cc(Cl)ccc1B(O)O[*:3])N[*:1])[*:2]; X32 = O=C([C@H](CNCc1ccc(B(O)O[*:3])cc1)N[*:1])[*:2]; X2 = O=C([C@H](CNCc1ccc(B(O)O[*:3])cn1)N[*:1])[*:2]; X6 = O=C([C@H](CNCc1cccc(B(O)O[*:3])c1)N[*:1])[*:2]; X27 = O=C([C@H](CNCc1ccccc1B(O)O[*:3])N[*:1])[*:2]; Hyp = O=C(O)[C@@H]1C[C@@H](O)CN1; NMeNle = CCCC[C@H](NC)C(=O)O; NMeA = CN[C@@H](C)C(=O)O; Dab = NCC[C@H](N)C(=O)O

What follows are compounds tested against PD-1/PD-L1 (Homo sapiens (Human), UniProt Q9NZQ7) (assay: PD-1/PD-L1 Homogenous Time-Resolved Fluorescence (HTRF) binding assay). Settings: PD-L1-His 10 nM, PD-1-Ig 20 nM; read-out: HTRF IC50.
Sequence of PD-1/PD-L1 (Q9NZQ7 18-239): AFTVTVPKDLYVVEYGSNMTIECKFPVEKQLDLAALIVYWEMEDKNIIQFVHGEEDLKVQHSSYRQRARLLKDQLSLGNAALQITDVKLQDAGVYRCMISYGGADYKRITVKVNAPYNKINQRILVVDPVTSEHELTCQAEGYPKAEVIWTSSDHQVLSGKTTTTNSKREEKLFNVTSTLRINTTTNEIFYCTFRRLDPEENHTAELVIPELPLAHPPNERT
Source text: Methods for Testing the Ability of Macrocyclic Peptides to Compete for the Binding of PD-1 to PD-L1 Using Homogenous Time-Resolved Fluorescence (HTRF) Binding Assays
The ability of the compounds of formula (I) to bind to PD-L1 was investigated using a PD-1/PD-L1 Homogenous Time-Resolved Fluorescence (HTRF) binding assay.
Homogenous Time-Resolved Fluorescence (HTRF) Binding Assay
The interaction of PD-1 and PD-L1 can be assessed using soluble, purified preparations of the extracellular domains of the two proteins. The PD-1 and PD-L1 protein extracellular domains were expressed as fusion proteins with detection tags, for PD-1, the tag was the Fc portion of Immunoglobulin (PD-1-Ig) and for PD-L1 it was the 6 histidine motif (PD-L1-His). All binding studies were performed in an HTRF assay buffer consisting of dPBS supplemented with 0.1% […] bovine serum albumin and 0.05% (v/v) Tween-20. For the h/PD-L1-His binding assay, inhibitors were pre-incubated with PD-L1-His (10 nM final) for 15 m in 4 μl of assay buffer, followed by addition of PD-1-Ig (20 nM final) in 1 μl of assay buffer and further incubation for 15 m. HTRF detection was achieved using europium cryptate-labeled anti-Ig (1 nM final) and allophycocyanin (APC) labeled anti-His (20 nM final). Antibodies were diluted in HTRF detection buffer and 5 μl was dispensed on top of the binding reaction. The reaction mixture was allowed to equilibrate for 30 minutes and the resulting signal (665 nm/620 nm ratio) was obtained using an EnVision fluorometer. Additional binding assays were established between the human proteins PD-1-Ig/PD-L2-His (20 & 5 nM, respectively) and CD80-His/PD-L1-Ig (100 & 10 nM, respectively).
Recombinant Proteins: Human PD-1 (25-167) with a C-terminal human Fc domain of immunoglobulin G (Ig) epitope tag [hPD-1 (25-167)-3S-IG] and human PD-L1 (18-239) with a C-terminal His epitope tag [hPD-L1(18-239)-TVMV-His] were expressed in HEK293T cells and purified sequentially by ProteinA affinity chromatography and size exclusion chromatography. Human PD-L2-His and CD80-His was obtained through commercial sources.
Table 1 lists the IC50 values for representative examples of this disclosure measured in the PD-1/PD-L1 Homogenous Time-Resolved Fluorescence (HTRF) binding assay.
`CCCC[C@H]1C(=O)N(C)[C@@H](CCCC)C(=O)N[C@@H](CC(C)C)C(=O)N[C@H](C(=O)NCC(N)=O)CSCC(=O)N[C@@H](Cc2ccc(O)cc2)C(=O)N(C)[C@@H](C)C(=O)N[C@@H](CC(N)=O)C(=O)N2CCC[C@H]2C(=O)N[C@H]2CNCc3cccc(c3)B(O)OC(=O)Cn3cc(c4ccccc43)C[C@H](NC(=O)[C@H](CCN)NC(=O)[C@H](Cc3c[nH]c4ccccc34)NC(=O)[C@@H]3C[C@@H](O)CN3C(=O)[C@H](CC(C)C)NC2=O)C(=O)N1C` [Example 1001] ({CH2CO}-Y[NMeA]NP[X6]L[Hyp]W[Dab][Trp(1-CH2CO)][NMeNle][NMeNle]LCG-NH2; ester 5-10; thioether N-14) was tested, and the IC50 was 3.8 nM. With `CCCC[C@H]1C(=O)N(C)[C@@H](CCCC)C(=O)N[C@@H](CC(C)C)C(=O)N[C@H](C(=O)NCC(N)=O)CSCC(=O)N[C@@H](Cc2ccc(O)cc2)C(=O)N(C)[C@@H](C)C(=O)N[C@@H](CC(N)=O)C(=O)N2CCC[C@H]2C(=O)N[C@H]2CNCc3ccc(cc3)B(O)OC(=O)Cn3cc(c4ccccc43)C[C@H](NC(=O)[C@H](CCN)NC(=O)[C@H](Cc3c[nH]c4ccccc34)NC(=O)[C@@H]3C[C@@H](O)CN3C(=O)[C@H](CC(C)C)NC2=O)C(=O)N1C` [Example 1002] ({CH2CO}-Y[NMeA]NP[X32]L[Hyp]W[Dab][Trp(1-CH2CO)][NMeNle][NMeNle]LCG-NH2; ester 5-10; thioether N-14) the IC50 was 3.5 nM. `CCCC[C@H]1C(=O)N(C)[C@@H](CCCC)C(=O)N[C@@H](CC(C)C)C(=O)N[C@H](C(=O)NCC(N)=O)CSCC(=O)N[C@@H](Cc2ccc(O)cc2)C(=O)N(C)[C@@H](C)C(=O)N[C@@H](CC(N)=O)C(=O)N2CCC[C@H]2C(=O)N[C@H]2CNCc3ccccc3B(O)OC(=O)Cn3cc(c4ccccc43)C[C@H](NC(=O)[C@H](CCN)NC(=O)[C@H](Cc3c[nH]c4ccccc34)NC(=O)[C@@H]3C[C@@H](O)CN3C(=O)[C@H](CC(C)C)NC2=O)C(=O)N1C` [Example 1003] ({CH2CO}-Y[NMeA]NP[X27]L[Hyp]W[Dab][Trp(1-CH2CO)][NMeNle][NMeNle]LCG-NH2; ester 5-10; thioether N-14) showed an IC50 of 7.8 nM. In the case of `CCCC[C@H]1C(=O)N(C)[C@@H](CCCC)C(=O)N[C@@H](CC(C)C)C(=O)N[C@H](C(=O)NCC(N)=O)CSCC(=O)N[C@@H](Cc2ccc(O)cc2)C(=O)N(C)[C@@H](C)C(=O)N[C@@H](CC(N)=O)C(=O)N2CCC[C@H]2C(=O)N[C@H]2CNCc3ccc(cc3)B3OB(O3)c3ccc(cc3)CNCC[C@H](NC(=O)[C@H](Cc3c[nH]c4ccccc34)NC(=O)[C@@H]3C[C@@H](O)CN3C(=O)[C@H](CC(C)C)NC2=O)C(=O)N[C@@H](Cc2cn(CC(=O)O)c3ccccc23)C(=O)N1C` [Example 1004], the IC50 is reported as 6.3 nM. `CCCC[C@H]1C(=O)N(C)[C@@H](CCCC)C(=O)N[C@@H](CC(C)C)C(=O)N[C@H](C(=O)NCC(N)=O)CSCC(=O)N[C@@H](Cc2ccc(O)cc2)C(=O)N(C)[C@@H](C)C(=O)N[C@@H](CC(N)=O)C(=O)N2CCC[C@H]2C(=O)N[C@H]2CNCc3ccc(cc3)B3OB(O3)c3cccc(c3)CNCC[C@H](NC(=O)[C@H](Cc3c[nH]c4ccccc34)NC(=O)[C@@H]3C[C@@H](O)CN3C(=O)[C@H](CC(C)C)NC2=O)C(=O)N[C@@H](Cc2cn(CC(=O)O)c3ccccc23)C(=O)N1C` [Example 1005] gave an IC50 of 7.1 nM. `CCCC[C@H]1C(=O)N(C)[C@@H](CCCC)C(=O)N[C@@H](CC(C)C)C(=O)N[C@H](C(=O)NCC(N)=O)CSCC(=O)N[C@@H](Cc2ccc(O)cc2)C(=O)N(C)[C@@H](C)C(=O)N[C@@H](CC(N)=O)C(=O)N2CCC[C@H]2C(=O)N[C@H]2CNCc3cc(OC)ccc3B(O)OC(=O)Cn3cc(c4ccccc43)C[C@H](NC(=O)[C@H](CCN)NC(=O)[C@H](Cc3c[nH]c4ccccc34)NC(=O)[C@@H]3C[C@@H](O)CN3C(=O)[C@H](CC(C)C)NC2=O)C(=O)N1C` [Example 1006] ({CH2CO}-Y[NMeA]NP[X29]L[Hyp]W[Dab][Trp(1-CH2CO)][NMeNle][NMeNle]LCG-NH2; ester 5-10; thioether N-14) gave an IC50 of 9 nM. In the case of `CCCC[C@H]1C(=O)N(C)[C@@H](CCCC)C(=O)N[C@@H](CC(C)C)C(=O)N[C@H](C(=O)NCC(N)=O)CSCC(=O)N[C@@H](Cc2ccc(O)cc2)C(=O)N(C)[C@@H](C)C(=O)N[C@@H](CC(N)=O)C(=O)N2CCC[C@H]2C(=O)N[C@H]2CNCc3cc(F)c(c(F)c3)B(O)OC(=O)Cn3cc(c4ccccc43)C[C@H](NC(=O)[C@H](CCN)NC(=O)[C@H](Cc3c[nH]c4ccccc34)NC(=O)[C@@H]3C[C@@H](O)CN3C(=O)[C@H](CC(C)C)NC2=O)C(=O)N1C` [Example 1007] ({CH2CO}-Y[NMeA]NP[X25]L[Hyp]W[Dab][Trp(1-CH2CO)][NMeNle][NMeNle]LCG-NH2; ester 5-10; thioether N-14), the IC50 is reported as 9.9 nM. `CCCC[C@H]1C(=O)N(C)[C@@H](CCCC)C(=O)N[C@@H](CC(C)C)C(=O)N[C@H](C(=O)NCC(N)=O)CSCC(=O)N[C@@H](Cc2ccc(O)cc2)C(=O)N(C)[C@@H](C)C(=O)N[C@@H](CC(N)=O)C(=O)N2CCC[C@H]2C(=O)N[C@H]2CNCc3cc(Cl)ccc3B(O)OC(=O)Cn3cc(c4ccccc43)C[C@H](NC(=O)[C@H](CCN)NC(=O)[C@H](Cc3c[nH]c4ccccc34)NC(=O)[C@@H]3C[C@@H](O)CN3C(=O)[C@H](CC(C)C)NC2=O)C(=O)N1C` [Example 1008] ({CH2CO}-Y[NMeA]NP[X4]L[Hyp]W[Dab][Trp(1-CH2CO)][NMeNle][NMeNle]LCG-NH2; ester 5-10; thioether N-14) was tested, and the IC50 was 6.7 nM. In the case of `CCCC[C@H]1C(=O)N(C)[C@@H](CCCC)C(=O)N[C@@H](CC(C)C)C(=O)N[C@H](C(=O)NCC(N)=O)CSCC(=O)N[C@@H](Cc2ccc(O)cc2)C(=O)N(C)[C@@H](C)C(=O)N[C@@H](CC(N)=O)C(=O)N2CCC[C@H]2C(=O)N[C@H]2CNCc3ccc(c(F)c3)B(O)OC(=O)Cn3cc(c4ccccc43)C[C@H](NC(=O)[C@H](CCN)NC(=O)[C@H](Cc3c[nH]c4ccccc34)NC(=O)[C@@H]3C[C@@H](O)CN3C(=O)[C@H](CC(C)C)NC2=O)C(=O)N1C` [Example 1009] ({CH2CO}-Y[NMeA]NP[X24]L[Hyp]W[Dab][Trp(1-CH2CO)][NMeNle][NMeNle]LCG-NH2; ester 5-10; thioether N-14), the IC50 is reported as 2.6 nM. `CCCC[C@H]1C(=O)N(C)[C@@H](CCCC)C(=O)N[C@@H](CC(C)C)C(=O)N[C@H](C(=O)NCC(N)=O)CSCC(=O)N[C@@H](Cc2ccc(O)cc2)C(=O)N(C)[C@@H](C)C(=O)N[C@@H](CC(N)=O)C(=O)N2CCC[C@H]2C(=O)N[C@H]2CNCc3ccc(cn3)B(O)OC(=O)Cn3cc(c4ccccc43)C[C@H](NC(=O)[C@H](CCN)NC(=O)[C@H](Cc3c[nH]c4ccccc34)NC(=O)[C@@H]3C[C@@H](O)CN3C(=O)[C@H](CC(C)C)NC2=O)C(=O)N1C` [Example 1010] ({CH2CO}-Y[NMeA]NP[X2]L[Hyp]W[Dab][Trp(1-CH2CO)][NMeNle][NMeNle]LCG-NH2; ester 5-10; thioether N-14) was tested, and the IC50 was 8.6 nM.
